Results: patent US20040224958A1, “Pyridopyrimidinone derivatives for treatment of neurodegenerative disease” (priority 2000, published 2004)
Where two headings read alike, the source gives them in different places.

Experiments:
cdk2/cyclinA = cdk2/cyclinA (Homo sapiens, UniProt P24941); experiment: Cyclin-Dependent Kinase Assay cdk2/cyclinA
Cdk5/p25 = Cdk5/p25 (Homo sapiens, UniProt Q00535); experiment: Cyclin-Dependent Kinase 5 High Throughput Screening (cdk5-HTS) Assay; type: biochemical; conditions: high throughput screen
Outline: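 Cdk5/p25 (1.0 μg/mL) phosphorylates GST-RbCOOH (20 μg/mL) in 50 mM Tris pH 7.4 with 10 mM MgCl2 and 20 μM ATP spiked with [γ33P]ATP, 30 min at room temperature. After EDTA stop, substrate captured on glutathione-coated plates; 33P incorporation counted by scintillation; IC50 determined.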

cdk2/cyclinE = cdk2/cyclinE (Homo sapiens, UniProt P24941); experiment: Cyclin-Dependent Kinase Assay cdk2/cyclinE
cdc2/cyclinB = cdc2/cyclinB (Homo sapiens, UniProt P06493); experiment: Cyclin-Dependent Kinase Assay cdc2/cyclinB
Chain of cdc2/cyclinB (P06493 whole entry): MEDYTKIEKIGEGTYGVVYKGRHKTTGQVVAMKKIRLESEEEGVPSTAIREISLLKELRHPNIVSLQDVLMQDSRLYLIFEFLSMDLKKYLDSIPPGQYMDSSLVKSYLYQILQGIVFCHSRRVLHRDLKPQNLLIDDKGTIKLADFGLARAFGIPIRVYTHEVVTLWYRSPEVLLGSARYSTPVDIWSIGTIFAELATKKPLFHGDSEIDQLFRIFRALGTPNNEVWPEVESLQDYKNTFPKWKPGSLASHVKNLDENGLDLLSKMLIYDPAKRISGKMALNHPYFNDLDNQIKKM
Chain of cdc2/cyclinB (P14635 whole entry, further chain): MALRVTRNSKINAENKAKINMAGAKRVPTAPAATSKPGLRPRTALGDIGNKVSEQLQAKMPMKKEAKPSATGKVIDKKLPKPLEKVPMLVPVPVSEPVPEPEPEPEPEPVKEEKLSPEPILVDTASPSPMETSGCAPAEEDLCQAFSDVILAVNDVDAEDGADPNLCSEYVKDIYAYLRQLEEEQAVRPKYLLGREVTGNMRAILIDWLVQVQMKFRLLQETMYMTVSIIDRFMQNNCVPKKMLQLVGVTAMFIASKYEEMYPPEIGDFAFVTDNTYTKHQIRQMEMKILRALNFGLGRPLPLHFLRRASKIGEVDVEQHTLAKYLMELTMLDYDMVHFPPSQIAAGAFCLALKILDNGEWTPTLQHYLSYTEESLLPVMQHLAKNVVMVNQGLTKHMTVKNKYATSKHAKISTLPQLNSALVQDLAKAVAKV

cdk4/D = cdk4/D (Homo sapiens, UniProt P11802); experiment: Cyclin-Dependent Kinase 4 (cdk4) Assay; type: biochemical; conditions: read-out: cdk4/D IC50
Chain of cdk4/D (P11802 whole entry): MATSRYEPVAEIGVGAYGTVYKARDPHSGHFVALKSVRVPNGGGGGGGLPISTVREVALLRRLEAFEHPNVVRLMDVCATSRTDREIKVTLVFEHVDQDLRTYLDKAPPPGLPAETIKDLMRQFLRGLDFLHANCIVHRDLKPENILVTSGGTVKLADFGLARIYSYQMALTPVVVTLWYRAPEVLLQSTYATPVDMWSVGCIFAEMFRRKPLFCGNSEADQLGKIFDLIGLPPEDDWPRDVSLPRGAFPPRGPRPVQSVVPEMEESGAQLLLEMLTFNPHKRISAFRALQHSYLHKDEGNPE
Chain of cdk4/D (P24385 whole entry, further chain): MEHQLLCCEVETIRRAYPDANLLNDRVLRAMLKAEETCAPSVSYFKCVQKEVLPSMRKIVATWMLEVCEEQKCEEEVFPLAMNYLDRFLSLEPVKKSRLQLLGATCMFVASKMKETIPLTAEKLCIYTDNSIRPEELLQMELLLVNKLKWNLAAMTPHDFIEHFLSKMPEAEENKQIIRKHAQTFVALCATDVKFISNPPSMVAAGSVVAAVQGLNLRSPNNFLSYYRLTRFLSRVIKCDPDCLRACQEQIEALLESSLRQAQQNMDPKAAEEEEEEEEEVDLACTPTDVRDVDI

IC50 (cdk2/cyclinA; cdk2/A IC50) [nM]	IC50 (Cdk5/p25) [nM]	IC50 (cdk2/cyclinE; cdk2/E IC50) [nM]	IC50 (cdc2/cyclinB) [nM]	IC50 (cdk4/D) [nM]	Compound	IC50 (cdk2/cyclinA; read-out: cdk2/A IC50) [nM]	IC50 (cdk2/cyclinE; read-out: cdk2/E IC50) [nM]	IC50 (cdc2/cyclinB; read-out: cdk1/B IC50) [nM]	IC50 (cdk2/cyclinA) [nM]	IC50 (cdk2/cyclinE) [nM]
1600	310	260	560	3500	COc1cc(Nc2ncc3ccc(=O)n(CC4CC4)c3n2)cc(OC)c1OC [Example 569, 8-Cyclopropylmethyl-2-(3,4,5-trimethoxy-phenylamino)-8H-pyrido[2,3-d]pyrimidin-7-one]	–	–	–	–	–
180	450	320	340	210	CC(=O)Nc1cc(Nc2ncc3ccc(=O)n(CC4CC4)c3n2)ccc1C [Example 585]	–	–	–	–	–
145	19	60.7	89.5	44.5	CCC(C)n1c(=O)ccc2cnc(Nc3ccc4[nH]ccc4c3)nc21 (stereo not shown) [Example 447, 8-sec-Butyl-2-(1H-indol-5-ylamino)-8H-pyrido[2,3-d]pyrimidin-7-one]	–	–	–	–	–
75	92.5	35.3	80	690	CCCn1c(=O)ccc2cnc(Nc3cc(Cl)c(O)c(Cl)c3)nc21 [Example 328, 2-(3,5-Dichloro-4-hydroxy-phenylamino)-8-propyl-8H-pyrido[2,3-d]pyrimidin-7-one]	–	–	–	–	–
1300	310	560	700	1200	CCCn1c(=O)ccc2cnc(Nc3ccc(F)c([N+](=O)[O-])c3)nc21 [Example 351, 2-(4-Fluoro-3-nitro-phenylamino)-8-propyl-8H-pyrido[2,3-d]pyrimidin-7-one]	–	–	–	–	–
555	133	240	590	450	CCC(C)n1c(=O)ccc2cnc(Nc3ccc(O)cc3F)nc21 (stereo not shown) [Example 451, 8-sec-Butyl-2-(2-fluoro-4-hydroxy-phenylamino)-8H-pyrido[2,3-d]pyrimidin-7-one]	–	–	–	–	–
340	220	280	510	30	CC(=O)Nc1cc(Nc2ncc3ccc(=O)n(C4CCCC4)c3n2)ccc1C [Example 558, N-[5-(8-Cyclopentyl-7-oxo-7,8-dihydro-pyrido[2,3-d]pyrimidin-2-ylamino)-2-methyl-phenyl]-acetamide]	–	–	–	–	–
1600	290	700	2100	360	CCCn1c(=O)ccc2cnc(Nc3ccc4c(c3)CCN4)nc21 [Example 357, 2-(2,3-Dihydro-1H-indol-5-ylamino)-8-propyl-8H-pyrido[2,3-d]pyrimidin-7-one]	–	–	–	–	–
380	215	690	955	1110	CC(C)n1c(=O)ccc2cnc(Nc3ccc4cn[nH]c4c3)nc21 [Example 438, 2-(1H-Indazol-6-ylamino)-8-isopropyl-8H-pyrido[2,3-d]pyrimidin-7-one]	–	–	–	–	–
170	9.7	170	160	66	COc1ccc(Nc2ncc3ccc(=O)n(C(C)C)c3n2)cc1F [Example 422, 2-(3-Fluoro-4-methoxy-phenylamino)-8-isopropyl-8H-pyrido[2,3-d]pyrimidin-7-one]	–	–	–	–	–
83	90	180	160	300	CCCn1c(=O)ccc2cnc(Nc3ccc4cn[nH]c4c3)nc21 [Example 358, 2-(1H-Indazol-6-ylamino)-8-propyl-8H-pyrido[2,3-d]pyrimidin-7-one]	–	–	–	–	–
1200	196	316	491	216	CCC(C)n1c(=O)ccc2cnc(Nc3cc([N+](=O)[O-])ccc3F)nc21 (stereo not shown) [Example 459, 8-sec-Butyl-2-(2-fluoro-5-nitro-phenylamino)-8H-pyrido[2,3-d]pyrimidin-7-one]	–	–	–	–	–
3900	430	950	620	2800	CCn1c(=O)ccc2cnc(Nc3cc(OC)cc(C(F)(F)F)c3)nc21 [Example 300, 8-Ethyl-2-(3-methoxy-5-trifluoromethyl-phenylamino)-8H-pyrido[2,3-d]pyrimidin-7-one]	–	–	–	–	–
450	29	260	61	310	CCCn1c(=O)ccc2cnc(Nc3cc(C)cc(C)c3)nc21 [Example 346, 2-(3,5-Dimethyl-phenylamino)-8-propyl-8H-pyrido[2,3-d]pyrimidin-7-one]	–	–	–	–	–
1000	86	990	340	390	CCCn1c(=O)ccc2cnc(Nc3ccc(Br)c(C)c3)nc21 [Example 360, 2-(4-Bromo-3-methyl-phenylamino)-8-propyl-8H-pyrido[2,3-d]pyrimidin-7-one]	–	–	–	–	–
57.5	17.5	53	31.5	365	CCC(CC)n1c(=O)ccc2cnc(Nc3ccc4cn[nH]c4c3)nc21 [Example 518, 8-(1-Ethyl-propyl)-2-(1H-indazol-6-ylamino)-8H-pyrido[2,3-d]pyrimidin-7-one]	–	–	–	–	–
580	35	120	140	58	CCCn1c(=O)ccc2cnc(Nc3ccc(C)c(Cl)c3)nc21 [Example 347, 2-(3-Chloro-4-methyl-phenylamino)-8-propyl-8H-pyrido[2,3-d]pyrimidin-7-one]	–	–	–	–	–
713	278	512	715	2000	CC(C)n1c(=O)ccc2cnc(Nc3cc(Cl)c(O)c(Cl)c3)nc21 [Example 412, 2-(3,5-Dichloro-4-hydroxy-phenylamino)-8-isopropyl-8H-pyrido[2,3-d]pyrimidin-7-one]	–	–	–	–	–
330	66	140	250	150	O=c1ccc2cnc(Nc3ccc(C(F)(F)F)cc3)nc2n1C1CCCC1 [Example 533, 8-Cyclopentyl-2-(4-trifluoromethyl-phenylamino)-81H-pyrido[2,3-d]pyrimidin-7-one]	–	–	–	–	–
140	39	100	170	98	O=C1CSc2ccc(Nc3ncc4ccc(=O)n(CC5CC5)c4n3)cc2N1 [Example 584, 8-Cyclopropylmethyl-2-(3-oxo-3,4-dihydro-2H-1,4-benzothiazin-6-ylamino)-8H-pyrido[2,3-d]pyrimidin-7-one]	–	–	–	–	–
140	20	25	58	87	CCCCn1c(=O)ccc2cnc(Nc3cccc(S(N)(=O)=O)c3)nc21 [Example 402, 3-(8-Butyl-7-oxo-7,8-dihydro-pyrido[2,3-d]pyrimidin-2-ylamino)-benzenesulfonamide]	–	–	–	–	–
1100	770	1200	1600	910	CCCn1c(=O)ccc2cnc(Nc3ccc(O)c(C)c3)nc21 [Example 354, 2-(4-Hydroxy-3-methyl-phenylamino)-8-propyl-8H-pyrido[2,3-d]pyrimidin-7-one]	–	–	–	–	–
1150	435	370	940	2100	CCCn1c(=O)ccc2cnc(Nc3cccc([N+](=O)[O-])c3)nc21 [Example 330, 2-(3-Nitro-phenylamino)-8-propyl-8H-pyrido[2,3-d]pyrimidin-7-one]	–	–	–	–	–
790	445	443	440	2050	CCn1c(=O)ccc2cnc(Nc3cc(Cl)c(O)c(Cl)c3)nc21 [Example 291, 2-(3,5-Dichloro-4-hydroxy-phenylamino)-8-ethyl-8H-pyrido[2,3-d]pyrimidin-7-one]	–	–	–	–	–
320	86.5	103	156	87	O=c1ccc2cnc(Nc3ccc4[nH]ccc4c3)nc2n1CC1CC1 [Example 563, 8-Cyclopropylmethyl-2-(1H-indol-5-ylamino)-8H-pyrido[2,3-d]pyrimidin-7-one]	–	–	–	–	–
520	140	270	290	80	CC(=O)Nc1cc(Nc2ncc3ccc(=O)n(CC4CC4)c3n2)ccc1C#N [Example 574, N-[2-Cyano-5-(8-cyclopropylmethyl-7-oxo-7,8-dihydro-pyrido[2,3-d]pyrimidin-2-ylamino)-phenyl]-acetamide]	–	–	–	–	–

Compound	IC50 (cdk2/cyclinA; cdk2/A IC50) [nM]	IC50 (Cdk5/p25) [nM]	IC50 (cdk2/cyclinE; cdk2/E IC50) [nM]	IC50 (cdc2/cyclinB) [nM]	IC50 (cdk4/D) [nM]	IC50 (cdk2/cyclinA; read-out: cdk2/A IC50) [nM]	IC50 (cdk2/cyclinE; read-out: cdk2/E IC50) [nM]	IC50 (cdc2/cyclinB; read-out: cdk1/B IC50) [nM]	IC50 (cdk2/cyclinA) [nM]	IC50 (cdk2/cyclinE) [nM]
2-(4-Bromo-3-trifluoromethyl-phenylamino)-8-cyclopentyl-8H-pyrido[2,3-d]pyrimidin-7-one [Example 561]	–	440	–	–	480	220	150	350	–	–
CCn1c(=O)ccc2cnc(Nc3ccc(S(N)(=O)=O)cc3)nc21 [Example 295, 4-(8-Ethyl-7-oxo-7,8-dihydro-pyrido[2,3-d]pyrimidin-2-ylamino)-benzenesulfonamide]	130	64	58	390	950	–	–	–	–	–
CCC(CC)n1c(=O)ccc2cnc(Nc3ccc(C)c(F)c3)nc21 [Example 482, 8-(1-Ethyl-propyl)-2-(3-fluoro-4-methyl-phenylamino)-8H-pyrido[2,3-d]pyrimidin-7-one]	–	63.2	–	214	166	–	–	–	597	152
